The values below come from ChEMBL document CHEMBL1201862, “PubChem BioAssay data set” (2004).

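Each compound was tested at five concentrations against cells in 96-well plates for 48 hours. GI50 is the concentration that inhibits growth by half.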 Activity calls are given as the source filed them. Rule as the data show it: active = GI50 up to about 1.1 µM and inactive = higher. Some results are limits rather than exact numbers.

Some test systems named below: HT-29; TK-10; UACC-62; K562; A498; SN12C; LOX IMVI; SK-MEL-5; SW-620; SF-295; HOP-92; KM12; SNB-19; HL-60; MCF7; M14; SNB-75; U-251; NCI-H226.
Common to all, as to assay: NCI anticancer screen, dose series, 48 h

For `OC1(c2ccc(Cl)cc2)c2c(c3ccccc3c3ccccc23)C2=NCCN21` (centres undefined), the GI50 in the assay with HT-29 is 14.6 µM (inactive); in the assay with TK-10, 4.98 µM (inactive); in the assay with UACC-62 it was 15.9 µM (inactive); in the assay on K562, 37.3 µM (inactive); in the assay with A498, 19.1 µM (inactive); with SN12C, 16.3 µM (inactive). For the same compound, the GI50 with LOX IMVI is 24.1 µM (inactive); with SK-MEL-5 it was 29 µM (inactive); in the assay with SW-620, 12.6 µM (inactive); with SF-295 it was 11.5 µM (inactive); in the assay with HOP-92, 16.6 µM (inactive); with KM12, 16.7 µM (inactive). Moreover, the GI50 with SNB-19 is 13.6 µM (inactive); in the assay with HL-60, > 100 µM (inactive); in the assay on MCF7, 14.6 µM (inactive); in the assay on M14, 11.4 µM (inactive); with SNB-75, 2.91 µM (inactive); with U-251, 12.8 µM (inactive).
As to `Nc1ncnc2c1ncn2C1CCC(CO)O1` (centres undefined), the GI50 with HT-29 was > 61.1 µM (inactive); in the assay on UACC-62 it was > 100 µM (inactive); with K562 it was > 100 µM (inactive); in the assay with A498 it was > 85.1 µM (inactive); with SN12C it was > 100 µM (inactive); with LOX IMVI it was > 100 µM (inactive). In addition, the GI50 in the assay with SK-MEL-5 is > 100 µM (inactive); in the assay with SW-620, > 100 µM (inactive); in the assay on SF-295, > 79.4 µM (inactive); in the assay with HOP-92, > 79.8 µM (inactive); with KM12, > 100 µM (inactive); with NCI-H226 it was > 67.9 µM (inactive). The GI50 in the assay on SNB-19, in the assay with HL-60, in the assay with MCF7, in the assay on SNB-75 and in the assay with U-251 was > 100 µM (inactive) throughout.
For the compound `Cn1c2c(c3ccccc31)CCN=C2C1CCCOC1=O` (centres undefined), the GI50 in the assay with HT-29, in the assay on TK-10, in the assay with UACC-62, in the assay on A498, in the assay with SN12C and with LOX IMVI was > 100 µM (inactive) throughout. The GI50 is > 100 µM (inactive) in the assay with SK-MEL-5; > 100 µM (inactive) with SW-620; 45.4 µM (inactive) in the assay with HOP-92; > 100 µM (inactive) in the assay with KM12; 11.7 µM (inactive) in the assay on NCI-H226; > 100 µM (inactive) in the assay with SNB-19. In addition, the GI50 was > 100 µM (inactive) with HL-60; > 100 µM (inactive) in the assay on MCF7; > 100 µM (inactive) in the assay with M14; 85.9 µM (inactive) in the assay with SNB-75; > 100 µM (inactive) in the assay with U-251.
Take `C=CC(=O)NCCC(=O)OCn1cc(F)c(=O)[nH]c1=O`: the GI50 in the assay with HT-29 is 4.12 µM (inactive); in the assay on TK-10, 0.838 µM (active); in the assay with UACC-62, 4.08 µM (inactive); in the assay on K562, 9.66 µM (inactive); in the assay with A498, 0.456 µM (active); in the assay on SN12C it was 0.838 µM (active). For the same compound, the GI50 with LOX IMVI is 4.34 µM (inactive); in the assay with SK-MEL-5 it was 3.67 µM (inactive); in the assay on SW-620, 17.2 µM (inactive); in the assay with SF-295, 15.5 µM (inactive); with HOP-92 it was 8.49 µM (inactive); in the assay on KM12 it was 5.48 µM (inactive). For the same compound, the GI50 with NCI-H226 was 13.3 µM (inactive); in the assay with SNB-19, 39.4 µM (inactive); in the assay on HL-60, 0.425 µM (active); with MCF7, 1.2 µM (inactive); in the assay on M14, 9.89 µM (inactive); in the assay on SNB-75, 19.4 µM (inactive). Further, the GI50 in the assay with U-251 was 18 µM (inactive).
Take `CC(NC(=O)C(NC(=O)C(NC(=O)C(F)(F)F)C(C)C)C(C)C)C(=O)Oc1c(Cl)c(Cl)c(Cl)c(Cl)c1Cl` (centres undefined): the GI50 with HT-29, with TK-10, in the assay on UACC-62, in the assay with K562, in the assay on A498 and in the assay on SN12C was > 100 µM (inactive) in each case. The GI50 was > 100 µM (inactive) in the assay with LOX IMVI; > 100 µM (inactive) with SK-MEL-5; > 100 µM (inactive) with SW-620; 32.5 µM (inactive) with HOP-92; > 100 µM (inactive) in the assay with KM12; 94.6 µM (inactive) in the assay on NCI-H226. Moreover, the GI50 with SNB-19, in the assay on HL-60, in the assay with MCF7, in the assay on M14, in the assay on SNB-75 and with U-251 was > 100 µM (inactive) throughout.
For `Cc1n[nH]c(=O)n1-c1cccnc1`, the GI50 with HT-29, in the assay on TK-10, in the assay with K562, with A498, in the assay on SN12C and in the assay with LOX IMVI was > 100 µM (inactive) each time. Further, the GI50 in the assay on SK-MEL-5, in the assay on SW-620, with SF-295, in the assay with HOP-92, with KM12 and with NCI-H226 was > 100 µM (inactive) in each case. For the same compound, the GI50 with SNB-19, in the assay on HL-60, in the assay with MCF7, with M14, in the assay with SNB-75 and in the assay on U-251 was > 100 µM (inactive) each time.
On to `C[C@@H]1Nc2cc(NC(=O)OCCF)nc(N)c2N=C1c1ccccc1`, for which the GI50 in the assay on HT-29 is < 0.0001 µM (active); with UACC-62, 34.8 µM (inactive); in the assay with K562 it was < 0.0001 µM (active); in the assay with A498, 19.8 µM (inactive); with SN12C, < 0.0001 µM (active); with LOX IMVI, < 0.0001 µM (active). Further, the GI50 was < 0.0001 µM (active) with SK-MEL-5; < 0.0001 µM (active) in the assay on SW-620; < 0.0001 µM (active) in the assay on SF-295; > 100 µM (inactive) in the assay on HOP-92; < 0.0001 µM (active) in the assay on KM12; 42.2 µM (inactive) in the assay on NCI-H226. For the same compound, the GI50 in the assay on SNB-19 was 0.0409 µM (active); in the assay with HL-60 it was < 0.0001 µM (active); with MCF7, 0.0208 µM (active); with M14, < 0.0001 µM (active); in the assay on SNB-75, 32.7 µM (inactive); with U-251, < 0.0001 µM (active).
In the case of `Cc1cc(NS(=O)(=O)c2ccc(/N=[N+](\[O-])c3ccc(S(=O)(=O)Nc4cc(C)on4)cc3)cc2)no1`, the GI50 in the assay on HT-29, in the assay on TK-10, with UACC-62, in the assay on K562, in the assay on A498 and in the assay on SN12C was > 100 µM (inactive) each time. The GI50 in the assay with LOX IMVI, in the assay with SK-MEL-5, in the assay on SF-295, in the assay on HOP-92, in the assay on NCI-H226 and with SNB-19 was > 100 µM (inactive) each time. Besides, the GI50 with HL-60, with MCF7, in the assay with M14, in the assay on SNB-75 and in the assay with U-251 was > 100 µM (inactive) in each case.
For `COC(=O)/C=C1\SC2(O\C1=N/c1ccccc1)C1CC3CC(C1)CC2C3` (centres undefined), the GI50 in the assay on HT-29, with TK-10, with UACC-62, in the assay with K562, with A498 and in the assay on SN12C was > 100 µM (inactive) each time. Besides, the GI50 in the assay with LOX IMVI, in the assay with SK-MEL-5, in the assay on SW-620, in the assay with SF-295, with HOP-92 and with KM12 was > 100 µM (inactive) in each case. Besides, the GI50 with NCI-H226, with SNB-19, in the assay on HL-60, with MCF7, in the assay on SNB-75 and in the assay with U-251 was > 100 µM (inactive) throughout.
Take `O=c1cnn(C/C=C/CO)c(=O)[nH]1`: the GI50 in the assay with TK-10 is > 100 µM (inactive); with K562, > 100 µM (inactive); with A498 it was > 100 µM (inactive); in the assay on SN12C, > 100 µM (inactive); in the assay on LOX IMVI, 28.3 µM (inactive); with SK-MEL-5 it was > 100 µM (inactive). Also, the GI50 with SW-620, with HOP-92, with KM12, in the assay with NCI-H226, in the assay with SNB-19 and in the assay on HL-60 was > 100 µM (inactive) throughout. Further, the GI50 in the assay with MCF7, in the assay on M14, in the assay with SNB-75 and in the assay with U-251 was > 100 µM (inactive) in each case.
With `CSc1ccc2c(cc1=O)[C@@H](NC(C)=O)CCc1cc(O)c(O)c(O)c1-2`, the GI50 was 9.82 µM (inactive) in the assay with HT-29; 18.8 µM (inactive) with TK-10; 36.1 µM (inactive) in the assay with UACC-62; 23.3 µM (inactive) in the assay on A498; 20.2 µM (inactive) in the assay on SN12C; 23 µM (inactive) in the assay on LOX IMVI. The GI50 in the assay with SK-MEL-5 was 32.4 µM (inactive); in the assay with SW-620 it was 28.1 µM (inactive); in the assay with SF-295, 13.3 µM (inactive); in the assay on HOP-92, 23.7 µM (inactive); in the assay with KM12, 18.3 µM (inactive); with NCI-H226 it was 15.4 µM (inactive). Besides, the GI50 is 29 µM (inactive) with SNB-19; 37.8 µM (inactive) with HL-60; 4.81 µM (inactive) in the assay with MCF7; 18.7 µM (inactive) in the assay with M14; 14.3 µM (inactive) in the assay on SNB-75; 16.3 µM (inactive) in the assay with U-251.
